The values below come from PubChem BioAssay (NCI).

SMILES strings stand for the structures.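 96-well plates; 48 h exposure; 5 concentrations. Endpoints by linear interpolation between flanking doses. Not reached: highest tested concentration assigned. At the TGI there is no net growth.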

Some test systems named below: NCI-H460 lung; SF-539 CNS; SNB-75 CNS; A549 NSCLC; HCT-15 colon; OVCAR-8 ovarian; HT29 colon; COLO 205 colon; SK-OV-3 ovarian; MOLT-4 leukemia; K-562 leukemia; KM12 colon; 786-0 renal; UO-31 renal.
Test in all cases: inhibition of tumour cell growth, NCI panel, 48 h

In the case of `Cc1cc2c(=O)c3ccc(Cl)cc3[nH]c2c(C(=O)O)c1C`, the TGI in the assay on NCI-H460 lung, in the assay with SF-539 CNS, with SNB-75 CNS, in the assay on A549 NSCLC, with HCT-15 colon and with OVCAR-8 ovarian was > 100 µM each time. Further, the TGI in the assay on HT29 colon, in the assay on COLO 205 colon, with SK-OV-3 ovarian, in the assay with MOLT-4 leukemia, with K-562 leukemia and in the assay on KM12 colon was > 100 µM throughout. Further, the TGI with 786-0 renal and in the assay on UO-31 renal was > 100 µM throughout.

With `N#CC(NNC(=O)Cc1ccccc1)c1ccc(O)cc1` (stereo not drawn), the TGI with NCI-H460 lung was > 100 µM; with SF-539 CNS, > 100 µM; in the assay with SNB-75 CNS, 97.5 µM; with A549 NSCLC, > 100 µM; with HCT-15 colon it was > 100 µM; with OVCAR-8 ovarian, > 100 µM. Further, the TGI with HT29 colon, in the assay on COLO 205 colon, in the assay on SK-OV-3 ovarian, in the assay on MOLT-4 leukemia, in the assay on K-562 leukemia and in the assay on KM12 colon was > 100 µM each time. In addition, the TGI in the assay on 786-0 renal and in the assay on UO-31 renal was > 100 µM each time.

Regarding `Nc1c2ccccc2nc2nccnc12`, the TGI in the assay with NCI-H460 lung, in the assay with SF-539 CNS, with SNB-75 CNS, with A549 NSCLC, with HCT-15 colon and in the assay on OVCAR-8 ovarian was > 100 µM in each case. For the same molecule, the TGI in the assay with HT29 colon, in the assay with COLO 205 colon, in the assay on SK-OV-3 ovarian, with MOLT-4 leukemia, in the assay with K-562 leukemia and in the assay on KM12 colon was > 100 µM throughout. Further, the TGI in the assay with 786-0 renal and in the assay on UO-31 renal was > 100 µM each time.

Consider `O=C(CSc1nc(-c2ccccc2)c(-c2ccccc2)[nH]1)N/N=C/c1ccc([N+](=O)[O-])cc1`, for which the TGI in the assay with NCI-H460 lung came out at 43.2 µM; in the assay on SF-539 CNS, 29.9 µM; with SNB-75 CNS it was 47.8 µM; with A549 NSCLC, 57.5 µM; in the assay on HCT-15 colon, 28.1 µM; with OVCAR-8 ovarian it was 25.4 µM. For the same molecule, the TGI stood at 35.8 µM in the assay with HT29 colon; 30.7 µM in the assay on COLO 205 colon; 35.3 µM in the assay with SK-OV-3 ovarian; 48.5 µM with MOLT-4 leukemia; 31.6 µM in the assay on KM12 colon; 30.5 µM in the assay on 786-0 renal. Besides, in the assay with UO-31 renal, the TGI worked out at 29.5 µM.

Consider `Nc1ccc(N=Nc2ccc(-c3ccc(N=Nc4c(S(=O)(=O)O)cc5cc(S(=O)(=O)O)c(N=Nc6ccc([N+](=O)[O-])cc6)c(N)c5c4O)cc3)cc2)c2cc(S(=O)(=O)O)ccc12`, for which the TGI with NCI-H460 lung, in the assay with SF-539 CNS, with SNB-75 CNS, in the assay with A549 NSCLC, in the assay on HCT-15 colon and in the assay on OVCAR-8 ovarian was > 100 µM throughout. Moreover, the TGI with HT29 colon, with COLO 205 colon, in the assay on SK-OV-3 ovarian, with MOLT-4 leukemia, with K-562 leukemia and in the assay on KM12 colon was > 100 µM throughout. For the same molecule, the TGI in the assay with 786-0 renal and in the assay with UO-31 renal was > 100 µM each time.

Consider `COc1ccc(-c2cc(=O)c3cc4c(cc3[nH]2)OCO4)c(OC)c1`, for which the TGI was > 100 µM in the assay with NCI-H460 lung; > 100 µM in the assay with SF-539 CNS; 31.2 µM with SNB-75 CNS; > 100 µM with A549 NSCLC; > 100 µM in the assay with HCT-15 colon; > 100 µM with OVCAR-8 ovarian. Further, the TGI in the assay on HT29 colon, in the assay on COLO 205 colon, in the assay with SK-OV-3 ovarian, with MOLT-4 leukemia, with K-562 leukemia and in the assay on KM12 colon was > 100 µM throughout. Further, the TGI with 786-0 renal and with UO-31 renal was > 100 µM in each case.

Consider `O=C1CCN(CCC(F)(F)C(F)(F)C(F)(F)C(F)(F)F)C(=S)N1`, for which the TGI in the assay on NCI-H460 lung, in the assay on SF-539 CNS, in the assay with SNB-75 CNS, in the assay with A549 NSCLC, with HCT-15 colon and in the assay on OVCAR-8 ovarian was > 100 µM in each case. Besides, the TGI in the assay with HT29 colon, in the assay with COLO 205 colon, in the assay on MOLT-4 leukemia, in the assay on K-562 leukemia, in the assay on KM12 colon and in the assay with 786-0 renal was > 100 µM each time. Further, the TGI in the assay with UO-31 renal is > 100 µM.

For `CC1=N/C(=C\c2ccc(N)cc2)C(=O)N1Nc1nnc(NN2C(=O)/C(=C/c3ccc(N)cc3)N=C2C)c2ccccc12`, the TGI in the assay on NCI-H460 lung, with SF-539 CNS, in the assay with SNB-75 CNS, in the assay with A549 NSCLC, with HCT-15 colon and with OVCAR-8 ovarian was > 100 µM each time. Moreover, the TGI with HT29 colon is > 100 µM; in the assay with COLO 205 colon it was > 100 µM; in the assay on MOLT-4 leukemia it was > 100 µM; with K-562 leukemia, > 100 µM; in the assay with KM12 colon, 81.5 µM; with 786-0 renal, > 100 µM.
